system: PC-3 tumors; assay: PC-3 tumor growth in vivo in athymic nude mice; conditions: PC3 xenografted nude mice, 10th week of treatment
Description: Approximately 3.10^6 PC-3 cells and 10.10^6 LNCaP cells were inoculated subcutaneously with 0.1 mL of Dulbecco's Modified Eagle's Medium (Invitrogen) supplemented with 10% FCS for PC-3 or with 0.1 mL of Matrigel (BD Biosciences Discovery Labware) for LNCaP in the flank region of 4-week-old male athymic nude mice (Charles River, L'Arbresle, France) via a 23-gauge needle. When PC-3 tumors reached 50 mm^3, usually 3 to 4 weeks after injection, mice were randomly selected for treatment with TCTP ASO alone, scrambled ASO alone, TCTP ASO plus docetaxel or scrambled ASO plus docetaxel. Mice bearing LNCaP tumors between 200 and 300 mm^3 in volume were castrated via scrotal approach and randomly assigned to a treatment arm. Mice were treated beginning 1 week after castration with TCTP ASO or control ASO alone and serum PSA measurements were done weekly. For both experiments, each experimental group consisted in 10 mice and the tumor volume measurements were performed once weekly and calculated by the formula length×width×depth×0.5236 (Gleave et al., 1999, Clin Cancer Res 5:2891-8). After randomization, 10 mg/kg TCTP or scrambled ASO was injected intraperitoneally (i.p) once daily for 60 days for ASO monotherapy groups and 90 days for the ASO plus docetaxel groups. A total of 35 mg/kg docetaxel was administrated i.p. three times per week from days 7 to 14. Tumor volume measurements were performed once weekly and calculated by the formula length×width×depth×0.5236 (20). Data points were expressed as average tumor volume levels +/−standard error (SE). All animal procedures were performed in accordance with protocols approved by French laws and the European directives and with appropriate institutional certification.
We next evaluated the effects of TCTP ASO treatment on the growth of PC-3 tumors in vivo (FIG. 8). Male nude mice bearing PC-3 tumors (50 mm^3) were randomly selected for TCTP ASO versus scrambled ASO and 10 mg/kg ASO were administrated once daily by i.p. injection for […]. From days 7 to 14, 30 mg/kg of docetaxel was administrated i.p. 3 days in the week. Mean tumor volume was similar in all groups before therapy.
TCTP inhibition was evaluated in nude mice xenografted with the PC3 CRPC cell line. The animals were treated in an everyday basis and for a period of two months by peritoneal injection of ASO or control TCTP once their tumor volume was 200-300 mm^3. In order to evaluate the additive anticancer activity of ASO TCTP, mice were treated with docetaxel (33 mg/kg) by peritoneal injection three times per week for one week prior to ASO or control TCTP injections. For all experiments, the average tumor volume was measured once a week.

| Compound | tumor volume |
| --- | --- |
| 5′-CGTGTAGGTACGGCAGATC-3′ (listed as DNA, chemistry not given here) [ASO scrambled, reference compound] | over 1500 mm^3 |

system: TCTP; assay: ASO sequences screening: TCTP expression by western blot and/or qRT-PCR; type: cell-based, human; conditions: WB and/or qRT-PCR, PC-3 cells overexpressing TCTP
Description: Western Blot analysis was performed as described previously (Rocchi et al., 2004, Cancer Res. 64:6595-602) with 1:5000 rabbit anti-Hsp27 polyclonal antibody (Assay Designs, Villeurbanne, France), 1:2000 rabbit TCTP polyclonal antibody (Abcam Inc., Cambridge, UK), 1:250 rabbit anti-MSL1v1 polyclonal antibody (Abcam Inc.), 1:500 mouse anti-ubiquitin monoclonal antibody (Santa Cruz Biotechnology Inc., Heidelberg, Germany) or 1:1000 rabbit anti-caspase-3 polyclonal antibody (Cell Signalling Technology Inc., Danvers, USA). Loading levels were normalized using 1:5000 rabbit anti-glyceraldehyde-3-phosphate dehydrogenase polyclonal (Abcam Inc.) or 1:2500 mouse anti-vinculine monoclonal antibodies (Sigma Chemical Co., St Louis, Mo., USA).
The quantitative reverse transcription polymerase chain reaction (qRT-PCR) analysis was done on a LightCycler detection system (Roche Applied Science, Meylan, France). Expression levels of 18S subunit of the ribosome gene were used as an internal control. First strand cDNA was synthesized from 1 μg of total RNA using random hexamers and expanded by reverse transcriptase according to the manufacturer's instructions (ImProm-II Reverse Transcription System, Promega, Charbonniéres-les-Bains, France), subsequently diluted 1:10 with water, and stored at −20° C. until use. TCTP and 18S polymerase chain reaction (PCR) products were detected by quantitative real time PCR (qRT-PCR) using the SYBR Premix Ex Taq (Takara Bio Inc, St Germain en Laye, France) following the manufacturer's instructions. Five microliters of diluted cDNA template were mixed with 10 μl SYBR Premix Ex Taq (including Taq polymerase, reaction buffer, MgCl2, SYBR green I dye, and deoxynucleotide triphosphate mix) and 0.4 μM forward and reverse primers, in a final volume of 20 μl. The following primers were used: TCTP forward 5′-[…]-3′ (SEQ ID NO: 8) and TCTP reverse 5′-[…]-3′; (SEQ ID NO: 9); 18S forward 5′-[…]-3′ (SEQ ID NO: 10) and 18S reverse 5′-[…]-3′ (SEQ ID NO: 11). After an initial Taq activation for 10 seconds at 95° C., Light Cycler PCR was done using 55 cycles with the following cycling conditions: 95° C. for 5 seconds, 58° C. for 7 seconds, and 72° C. for 14 seconds. Each sample was analyzed in duplicate and the experiment was repeated three times. Results were analyzed using RealQuant data analysis software (Roche, Neuilly-sur-seine, France). The results analysis was done with the 2(-Delta Delta C(T)) Method (Livak K J. et al., 2001; Methods. 25:402-8).
In order to find a sequence ASO having an inhibiting effect on TCTP expression, 30 ASO sequences have been designed 26 of which are shown in table 1. Said 30 sequences cover the TCTP mRNA (accession number NM_003295). Using BLAST program, the specificity of said sequences has been studied. Among said 30 sequences, only 15 sequences have been identified as being specific for TCPT mRNA sequence (see table 1). The effect of said ASO sequences on TCTP expression was tested by western blot analysis (WB) and/or by quantitative reverse transcription polymerase chain reaction (qRT-PCR) on PC-3 cells overexpressing TCTP. WB and qRT-PCR were performed as exposed in example 1.

| Compound | ability to inhibit TCTP expression |
| --- | --- |
| GTTTCCCTTTGATTGATTTC (listed as DNA, chemistry not fully specified) [ASO18] | strong ability to inhibit TCTP expression |
| AGAAAATCATATATGGGGTC (listed as DNA, chemistry not fully specified) [ASO24] | strong ability to inhibit TCTP expression |
| TTAACATTTCTCCATTTCTA (listed as DNA, chemistry not fully specified) [ASO26] | strong ability to inhibit TCTP expression |
| ATGTAATCTTTGATGTACTT (listed as DNA, chemistry not fully specified) [ASO17] | strong ability to inhibit TCTP expression |
| GAAATTAGCAAGGATGTGCT (listed as DNA, chemistry not fully specified) [ASO30] | strong ability to inhibit TCTP expression |
| CTTGTAGGCTTCTTTTGTGA (listed as DNA, chemistry not fully specified) [ASO16] | strong ability to inhibit TCTP expression |
| TTCTGGTCTCTGTTCTTCAA (listed as DNA, chemistry not fully specified) [ASO19] | strong ability to inhibit TCTP expression |
| TAATCATGATGGCGACTGAA (listed as DNA, chemistry not fully specified) [ASO4] | strong ability to inhibit TCTP expression |
| ACCAGTGATTACTGTGCTTT (listed as DNA, chemistry not fully specified) [ASO13] | strong ability to inhibit TCTP expression |
| GTCATAAAAGGTTTTACTCT (listed as DNA, chemistry not fully specified) [ASO28] | strong ability to inhibit TCTP expression |

system: PC-3 cells; assay: Flow cytometry of propidium iodide-stained nuclei (apoptosis, cell cycle), PC-3 cells; type: cell-based, human; conditions: PC-3, docetaxel treatment
Description: Flow cytometry of propidium iodide-stained nuclei was performed as described previously (Rocchi et al., 2004, Cancer Res. 64:6595-602). In brief, PC-3 cells were plated at the density of 10^6 cells into 10 cm dishes in DMEM supplemented with 10% FCS. To assess the effect of TCTP inhibition on apoptosis and cell cycle, cells were treated the day after seeding with 5 nM of siRNA TCTP or control and 100 nM of ASO TCTP or scrambled control for 48 h. Cells were then treated with 50 nM of docetaxel. After 24 h, the cells were analyzed for relative DNA content on a dual laser flow cytometer (FACSCalibur, Becton Dickinson Biosciences, Le Pont de Claix, France). Each assay was performed in triplicate.
Flow cytometry was used to quantify the percentage of cells in each cell cycle phase three days after the siRNA treatment. After the treatment of PC-3 cells with 5 nM TCTP siRNA for 1 day, the fraction of cells undergoing apoptosis (sub-G1/G0 fraction) was 25% higher after treatment with 5 nM TCTP siRNA compared with scrambled control siRNA (**, P≤0.01; FIG. 6, upper panel). Using TCTP ASO treatment alone, we found an increase of 75% in sub-G0G1 fraction (***, P≤0.001; FIG. 6, middle and bottom panel), enhanced by the 50 nM docetaxel treatment (90% in sub-G0-G1 fraction, ***, P≤0.001). […] The fraction of PC-3 in S phase was 20 to 40% lower after TCTP siRNA or ASO treatments respectively compared to the scrambled controls (FIG. 6). […] The rate of apoptotic PC-3 cells after TCTP silencing with different ASO concentrations was explored with the Invitrogen countess (FIG. 6 and FIG. 7A). PC-3 cells were treated with 70, 100 or 200 nM of TCTP ASO or control. Cells were harvested 3 days after treatment and […] of trypan blue was added before analysis with Invitrogen Countess. […] Moreover, TCTP has been reported to interact with caspase-3, thereby inhibiting caspase-3 activation (Gnanasekar et al., 2009, Int J Oncol. 34:1241-6). In order to investigate the effect of TCTP silencing on caspase-3 cleavage and activity, PC-3 cells were treated daily with 100 nM TCTP or scrambled ASO for 2 days. Cells were harvested 2 days after and proteins were extracted for western blotting with a caspase-3 antibody that recognizes both full-length and cleaved caspase-3.
PC3 cells were transfected with a TCTP siRNA of SEQ ID NO: 3. Cell proliferation and apoptosis were studied using respectively MTT (3-(4,5-dimethylthiazol-2-yl)-2,5-diphenyl tetrazolium bromure) assay and flow cytometry.
PC3 cells were transfected with a TCTP ASO of SEQ ID NO: 2. Cell proliferation and apoptosis were studied using respectively MTT assay and flow cytometry.

| Compound | fraction of cells in S phase | fraction of cells undergoing apoptosis |
| --- | --- | --- |
| CC(=O)O[C@@]12CO[C@@H]1C[C@H](O)[C@@]1(C)C(=O)[C@H](O)C3=C(C)[C@@H](OC(=O)[C@H](O)[C@@H](NC(=O)OC(C)(C)C)c4ccccc4)C[C@@](O)([C@@H](OC(=O)c4ccccc4)[C@H]21)C3(C)C [docetaxel, reference compound] | without changing the fraction of cells in S phase | increased the fraction of cells undergoing apoptosis |

Reference: US10105384B2, “Nucleic acids targeting TCTP for use in the treatment of chemo- or hormone-resistant cancers” (INSTITUT NATIONAL DE LA SANTE ET DE LA RECHERCHE MEDICALE …, priority 2010, dated 2018)
